Counter-ions that a name gives are not always drawn.
These molecules were tested against T1, human α1D adrenergic receptor (Homo sapiens, UniProt P25100) (assay: Measurement of α1D adrenergic receptor binding inhibitory activity ([3H]-prazosin binding to membrane fraction of CHO-K1 cells expressing the receptor)). Details: compound at 1 μM; [3H]-prazosin 2.5 nM; membrane fraction 20 μg/well; room temperature, 1 hr; read-out: Binding inhibitory rate (%) (α1D adrenergic receptor binding inhibitory rate).
T1 construct: expressed in transfected cells; membrane fraction used
T1 sequence (P25100 1-572): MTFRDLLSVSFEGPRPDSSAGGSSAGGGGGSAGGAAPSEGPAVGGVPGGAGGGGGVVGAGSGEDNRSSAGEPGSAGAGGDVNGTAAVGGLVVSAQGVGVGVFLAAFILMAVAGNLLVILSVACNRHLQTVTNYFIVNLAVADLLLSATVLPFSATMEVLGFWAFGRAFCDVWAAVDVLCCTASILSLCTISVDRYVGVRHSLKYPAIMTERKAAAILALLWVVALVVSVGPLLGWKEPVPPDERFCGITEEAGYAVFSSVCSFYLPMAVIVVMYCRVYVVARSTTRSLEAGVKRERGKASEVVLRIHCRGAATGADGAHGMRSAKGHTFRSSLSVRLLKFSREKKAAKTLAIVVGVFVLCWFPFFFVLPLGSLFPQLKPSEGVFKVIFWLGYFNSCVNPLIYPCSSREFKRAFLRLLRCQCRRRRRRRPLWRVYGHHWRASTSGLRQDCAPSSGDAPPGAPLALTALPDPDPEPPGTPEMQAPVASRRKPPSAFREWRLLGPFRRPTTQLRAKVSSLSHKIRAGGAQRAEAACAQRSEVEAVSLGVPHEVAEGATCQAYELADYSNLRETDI
Protocol: Measurement of α1D Adrenergic Receptor Binding Inhibitory Activity
(i) Preparation of Human α1D Adrenergic Receptor Expression Plasmid
α1D Adrenergic Receptor Gene was Cloned from Human Liver cDNA by the PCR method. PCR reaction was performed by Gene Amp PCR System 9700 (Applied Biosystems) with 50 pmol each of the primer set 5′-[…]-3′ [SEQ ID NO: 1] and 5′-[…]-3′ [SEQ ID NO: 2] prepared in reference to the base sequence of the α1D adrenergic receptor gene reported by DEBRA A. et al. (J. Pharamacol. Exp. Ter., 272, 134-142 (1995)), 200 ng of human brain hippocampus cDNA library (Takara Shuzo Co., Ltd.) as a template and TaKaRa LA-Taq DNA Polymerase (Takara Shuzo Co., Ltd.) (reaction conditions: 45 cycles of 94° C. for 15 sec, 68° C. for 3.5 min).
The PCR fragment obtained above was digested with restriction enzymes NheI (Takara Shuzo Co., Ltd.) and Kpn I (Takara Shuzo Co., Ltd.), and applied to agarose gel electrophoresis to recover DNA fragments. The DNA fragments were ligated with animal cell expression plasmid pcDNA3.1/Zeo (Invitrogen) digested with NheI and Kpn I, by DNA Ligation Kit Ver. 2 (Takara Shuzo Co., Ltd.), and transformed the competent cells of Escherichia coli JM109 to obtain plasmid, pcDNA3.1/Zeo-Adreα1D.
(ii) Introduction of Human α1D Adrenergic Receptor Expression Plasmid into CHO-K1 Cells and Preparation of Membrane Fraction
CHO-K1 cells passage cultured in HamF12 medium (Invitrogen) containing 10% fetal bovine serum (TRACE SCIENCETIFIC) in a 150 cm^2 culture flask (Corning Coaster) were detached with 0.5 g/L trypsin-0.2 g/L EDTA (Invitrogen), and the cells were washed with D-PBS(−) (Invitrogen) and centrifuged (1000 rpm, 5 min). Then, using Gene Pulser II (BioRad), DNA was introduced into the cells under the following conditions. 1×10^7 cells suspended in D-PBS(−) (700 μl) and 10 μg of pcDNA3.1/Zeo-Adreα1D were added in a 0.4 cm gap cuvette (BioRad), and electroporation was performed under voltage 0.25 kV, capacitance 960 μF. The cells were cultured in HamF12 medium containing 10% fetal bovine serum and 250 μg/mL Zeocin (Invitrogen) and the Zeocin resistance clones were selected.
Plurality of Zeocin resistance clones were selected and cultured in a cell culture flask (150 cm^2) until semiconfluent, and the cellular membrane fraction was prepared as follows.
The semiconfluent cells were detached with 0.02% EDTA containing D-PBS(−) and recovered by centrifugation. The cells were suspended in membrane preparation buffer (10 mM NaHCO3 pH 7.4, protease inhibitor cocktail (Roche)) and disrupted by 3 times of treatment in a polytron homogenizer (model PT-3100, KINEMATICA AG) at 20000 rpm for 20 seconds. After disruption, the cells were centrifuged at 2000 rpm for 10 min and the supernatant containing membrane fractions was obtained. The supernatant was centrifuged using an ultracentrifuge (model L8-70M, rotor 70 Ti, Beckman Instruments) at 30000 rpm for 1 hr to obtain a precipitate containing membrane fractions. The obtained membrane fraction of each clone was subjected to the binding experiment shown below.
The membrane fraction (20 μg/well) and [^3H]-prazosin (2.5 nM, PerkinElmer Lifescience), as a ligand, were diluted with a binding assay buffer (50 mM Tris-HCl, 10 mM MgCl2, 0.5% BSA, protease inhibitor cocktail pH 7.5), added to a 96 well microplate, and reacted at room temperature for 1 hr. For the measurement of non-specific binding, phentolamine (Sigma) was further added to 10 μM. Then, the reaction mixture was filtered and transferred to unifilter GF/C (PerkinElmer Lifescience) by using a cell harvester (PerkinElmer Lifescience). The filter was washed 3 times with ice-cooled 50 mM Tris buffer (pH 7.5). After drying the filter, MicroScinti 0 (PerkinElmer Lifescience) was added to the filter and the radioactivity was measured by TopCount (PerkinElmer Lifescience).
(iii) Evaluation of Example Compound […]

| SMILES | inhibition at 1 µM [%] |
| --- | --- |
| C[C@H](c1cc(F)cc(F)c1)n1cc(Cl)cc(C(N)=O)c1=N [Example 14, 5-chloro-1-[(1R)-1-(3,5-difluorophenyl)ethyl]-2-imino-1,2-dihydropyridine-3-carboxamide hydrochloride] | 100 |
| N=c1c(C(N)=O)cc(Cl)cn1C1CCS(=O)(=O)c2ccc(Cl)cc21 (stereo not shown) [Example 30, 5-chloro-1-(6-chloro-1,1-dioxido-3,4-dihydro-2H-thiochromen-4-yl)-2-imino-1,2-dihydropyridine-3-carboxamide hydrochloride] | 96.9 |
| N=c1c(C(N)=O)cc(Cl)cn1C1(c2ccccc2)CC1 [Example 15, 5-chloro-2-imino-1-(1-phenylcyclopropyl)-1,2-dihydropyridine-3-carboxamide] | 62 |
| C[C@H](c1cccc(F)c1)n1cc(Cl)cc(C(N)=O)c1=N [Example 12, 5-chloro-1-[(1R)-1-(3-fluorophenyl)ethyl]-2-imino-1,2-dihydropyridine-3-carboxamide hydrochloride] | 97 |
| C[C@H](c1cccc(C#N)c1)n1cc(Cl)cc(C(N)=O)c1=N [Example 23, 5-chloro-1-[(1R)-1-(3-cyanophenyl)ethyl]-2-imino-1,2-dihydropyridine-3-carboxamide hydrochloride] | 100 |
| CC(c1cccc(Cl)c1)n1cc(Cl)cc(C(N)=O)c1=N (stereo not shown) [Example 1, 5-chloro-1-[1-(3-chlorophenyl)ethyl]-2-imino-1,2-dihydropyridine-3-carboxamide] | 100 |
| N=c1c(C(N)=O)cc(Cl)cn1C1CCc2ccc(Cl)cc21 (stereo not shown) [Example 2, 5-chloro-1-(6-chloro-2,3-dihydro-1H-inden-1-yl)-2-imino-1,2-dihydropyridine-3-carboxamide] | 102 |
| N#Cc1ccc2c(c1)C(n1cc(Cl)cc(C(N)=O)c1=N)CC2 (stereo not shown) [Example 19, 5-chloro-1-(6-cyano-2,3-dihydro-1H-inden-1-yl)-2-imino-1,2-dihydropyridine-3-carboxamide hydrochloride] | 94.8 |
| C[C@H](c1ccc(F)cc1)n1cc(Cl)cc(C(N)=O)c1=N [Example 22, 5-chloro-1-[(1R)-1-(4-fluorophenyl)ethyl]-2-imino-1,2-dihydropyridine-3-carboxamide hydrochloride] | 96.1 |
| CC(c1ccsc1)n1cc(Cl)cc(C(N)=O)c1=N (stereo not shown) [Example 5, 5-chloro-2-imino-1-(1-(thiophen-3-yl)ethyl)-1,2-dihydropyridine-3-carboxamide hydrochloride] | 79.4 |
